Tests used:
[1] = target: T1, 5-hydroxytryptamine receptor 3A (Homo sapiens, UniProt P46098); format: functional
T1 sequence (P46098 whole entry): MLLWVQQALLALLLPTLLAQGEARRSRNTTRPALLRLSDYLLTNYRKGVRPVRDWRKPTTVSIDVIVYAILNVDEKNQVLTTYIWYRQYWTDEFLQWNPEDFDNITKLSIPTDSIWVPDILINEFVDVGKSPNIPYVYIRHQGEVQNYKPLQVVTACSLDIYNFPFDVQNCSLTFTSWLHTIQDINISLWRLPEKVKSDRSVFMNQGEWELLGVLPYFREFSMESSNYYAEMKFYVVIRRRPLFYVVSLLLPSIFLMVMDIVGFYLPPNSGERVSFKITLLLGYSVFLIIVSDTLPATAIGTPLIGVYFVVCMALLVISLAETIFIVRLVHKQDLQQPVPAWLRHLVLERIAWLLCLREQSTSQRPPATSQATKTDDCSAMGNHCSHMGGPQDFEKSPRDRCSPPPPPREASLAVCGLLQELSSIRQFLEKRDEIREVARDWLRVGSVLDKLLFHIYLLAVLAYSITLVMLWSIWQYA

Cannabinoid receptor 1 = Cannabinoid receptor 1 (Homo sapiens, UniProt P21554); format: functional, cell-based
[2] = target: Sodium-dependent noradrenaline transporter (Homo sapiens, UniProt P23975)
Melanocortin receptor 3 = Melanocortin receptor 3 (Homo sapiens, UniProt P41968)
Endothelin-1 receptor = target: T2, Endothelin-1 receptor (Homo sapiens, UniProt P25101)
T2 sequence (P25101 whole entry): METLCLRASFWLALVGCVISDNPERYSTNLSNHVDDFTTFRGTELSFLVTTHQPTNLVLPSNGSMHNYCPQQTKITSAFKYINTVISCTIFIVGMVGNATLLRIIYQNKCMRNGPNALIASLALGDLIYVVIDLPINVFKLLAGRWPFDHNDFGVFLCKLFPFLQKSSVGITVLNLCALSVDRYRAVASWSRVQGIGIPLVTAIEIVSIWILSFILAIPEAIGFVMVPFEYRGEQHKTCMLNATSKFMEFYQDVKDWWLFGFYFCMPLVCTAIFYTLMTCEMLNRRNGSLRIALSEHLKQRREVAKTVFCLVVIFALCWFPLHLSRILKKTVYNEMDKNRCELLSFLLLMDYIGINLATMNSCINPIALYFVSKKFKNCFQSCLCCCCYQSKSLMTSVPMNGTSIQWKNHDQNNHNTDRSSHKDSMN

[3] = target: 5-hydroxytryptamine receptor 2A (Homo sapiens, UniProt P28223); format: functional, cell-based
Estrogen receptor = target: T3, Estrogen receptor (Homo sapiens, UniProt P03372)
T3 sequence (P03372 whole entry): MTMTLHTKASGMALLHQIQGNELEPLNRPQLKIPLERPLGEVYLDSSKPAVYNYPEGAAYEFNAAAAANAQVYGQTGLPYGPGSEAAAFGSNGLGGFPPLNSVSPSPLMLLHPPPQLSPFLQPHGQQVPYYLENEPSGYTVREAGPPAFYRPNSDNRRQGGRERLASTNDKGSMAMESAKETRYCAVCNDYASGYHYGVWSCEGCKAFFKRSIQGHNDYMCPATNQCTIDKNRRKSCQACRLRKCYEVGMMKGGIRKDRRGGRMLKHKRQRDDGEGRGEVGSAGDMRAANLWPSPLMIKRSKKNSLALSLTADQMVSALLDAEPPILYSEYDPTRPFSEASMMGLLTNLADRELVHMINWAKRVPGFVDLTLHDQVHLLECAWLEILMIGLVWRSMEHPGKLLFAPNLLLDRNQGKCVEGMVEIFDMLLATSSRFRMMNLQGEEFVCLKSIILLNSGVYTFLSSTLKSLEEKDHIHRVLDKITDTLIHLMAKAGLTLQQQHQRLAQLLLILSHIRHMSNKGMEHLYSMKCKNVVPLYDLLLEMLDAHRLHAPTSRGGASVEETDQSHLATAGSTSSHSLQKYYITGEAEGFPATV

D(3) dopamine receptor = D(3) dopamine receptor (Homo sapiens, UniProt P35462)
[4] = target: Glutamate receptor ionotropic, NMDA 1 (Rattus norvegicus, UniProt P35439)
[5] = target: Beta-2 adrenergic receptor (Homo sapiens, UniProt P07550)
Motilin receptor = Motilin receptor (Homo sapiens, UniProt O43193)
Progesterone receptor = target: T4, Progesterone receptor (Homo sapiens, UniProt P06401); format: functional
T4 sequence (P06401 whole entry): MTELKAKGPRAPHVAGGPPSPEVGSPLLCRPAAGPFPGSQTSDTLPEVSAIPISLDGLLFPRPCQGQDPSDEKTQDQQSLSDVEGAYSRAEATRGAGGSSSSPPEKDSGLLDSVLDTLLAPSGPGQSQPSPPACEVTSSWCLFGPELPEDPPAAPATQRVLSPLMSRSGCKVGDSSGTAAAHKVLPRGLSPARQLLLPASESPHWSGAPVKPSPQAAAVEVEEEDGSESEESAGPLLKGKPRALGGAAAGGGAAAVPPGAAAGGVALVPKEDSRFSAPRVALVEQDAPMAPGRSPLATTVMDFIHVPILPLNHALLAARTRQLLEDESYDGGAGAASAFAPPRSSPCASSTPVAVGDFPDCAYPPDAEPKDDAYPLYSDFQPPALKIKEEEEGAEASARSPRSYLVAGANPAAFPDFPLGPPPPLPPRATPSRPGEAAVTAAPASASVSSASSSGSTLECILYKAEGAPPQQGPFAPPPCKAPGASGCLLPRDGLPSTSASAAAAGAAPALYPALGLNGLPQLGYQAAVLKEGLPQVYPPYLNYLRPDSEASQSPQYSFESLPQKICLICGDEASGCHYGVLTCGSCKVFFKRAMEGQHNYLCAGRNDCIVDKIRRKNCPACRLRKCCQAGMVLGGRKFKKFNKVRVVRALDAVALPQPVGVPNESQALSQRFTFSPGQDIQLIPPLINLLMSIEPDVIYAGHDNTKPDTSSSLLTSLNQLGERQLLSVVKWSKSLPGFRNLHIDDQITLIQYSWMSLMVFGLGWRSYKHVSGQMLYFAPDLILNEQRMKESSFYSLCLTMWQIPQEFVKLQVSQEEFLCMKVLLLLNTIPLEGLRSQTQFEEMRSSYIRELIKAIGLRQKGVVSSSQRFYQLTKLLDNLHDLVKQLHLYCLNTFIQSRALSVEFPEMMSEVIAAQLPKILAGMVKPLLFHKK

[6] = target: Voltage-dependent L-type calcium channel subunit alpha-1C (Rattus norvegicus, UniProt P22002); format: functional
Further: assay procedure not described here.

Chain of Beta-2 adrenergic receptor (P07550 whole entry): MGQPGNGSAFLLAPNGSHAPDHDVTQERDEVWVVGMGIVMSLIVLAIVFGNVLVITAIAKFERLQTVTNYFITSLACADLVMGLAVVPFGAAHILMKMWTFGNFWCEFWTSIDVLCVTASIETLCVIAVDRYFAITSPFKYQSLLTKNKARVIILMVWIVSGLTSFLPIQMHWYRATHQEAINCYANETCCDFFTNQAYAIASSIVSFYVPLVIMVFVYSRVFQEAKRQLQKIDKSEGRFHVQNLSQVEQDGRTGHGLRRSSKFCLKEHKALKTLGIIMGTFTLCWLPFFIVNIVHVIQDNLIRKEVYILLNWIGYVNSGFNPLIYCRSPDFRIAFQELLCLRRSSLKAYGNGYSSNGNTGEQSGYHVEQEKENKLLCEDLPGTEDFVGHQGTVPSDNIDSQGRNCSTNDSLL
Chain of Melanocortin receptor 3 (P41968 whole entry): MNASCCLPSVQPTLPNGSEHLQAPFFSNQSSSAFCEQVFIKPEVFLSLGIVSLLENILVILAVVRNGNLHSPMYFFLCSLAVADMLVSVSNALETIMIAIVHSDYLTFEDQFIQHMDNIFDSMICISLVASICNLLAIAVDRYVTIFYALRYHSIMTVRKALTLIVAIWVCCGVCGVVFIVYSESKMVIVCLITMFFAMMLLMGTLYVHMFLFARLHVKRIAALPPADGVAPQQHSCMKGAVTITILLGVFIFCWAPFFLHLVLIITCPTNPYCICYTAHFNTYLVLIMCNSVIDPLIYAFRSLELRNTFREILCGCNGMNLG
Chain of Voltage-dependent L-type calcium channel subunit alpha-1C (P22002 whole entry): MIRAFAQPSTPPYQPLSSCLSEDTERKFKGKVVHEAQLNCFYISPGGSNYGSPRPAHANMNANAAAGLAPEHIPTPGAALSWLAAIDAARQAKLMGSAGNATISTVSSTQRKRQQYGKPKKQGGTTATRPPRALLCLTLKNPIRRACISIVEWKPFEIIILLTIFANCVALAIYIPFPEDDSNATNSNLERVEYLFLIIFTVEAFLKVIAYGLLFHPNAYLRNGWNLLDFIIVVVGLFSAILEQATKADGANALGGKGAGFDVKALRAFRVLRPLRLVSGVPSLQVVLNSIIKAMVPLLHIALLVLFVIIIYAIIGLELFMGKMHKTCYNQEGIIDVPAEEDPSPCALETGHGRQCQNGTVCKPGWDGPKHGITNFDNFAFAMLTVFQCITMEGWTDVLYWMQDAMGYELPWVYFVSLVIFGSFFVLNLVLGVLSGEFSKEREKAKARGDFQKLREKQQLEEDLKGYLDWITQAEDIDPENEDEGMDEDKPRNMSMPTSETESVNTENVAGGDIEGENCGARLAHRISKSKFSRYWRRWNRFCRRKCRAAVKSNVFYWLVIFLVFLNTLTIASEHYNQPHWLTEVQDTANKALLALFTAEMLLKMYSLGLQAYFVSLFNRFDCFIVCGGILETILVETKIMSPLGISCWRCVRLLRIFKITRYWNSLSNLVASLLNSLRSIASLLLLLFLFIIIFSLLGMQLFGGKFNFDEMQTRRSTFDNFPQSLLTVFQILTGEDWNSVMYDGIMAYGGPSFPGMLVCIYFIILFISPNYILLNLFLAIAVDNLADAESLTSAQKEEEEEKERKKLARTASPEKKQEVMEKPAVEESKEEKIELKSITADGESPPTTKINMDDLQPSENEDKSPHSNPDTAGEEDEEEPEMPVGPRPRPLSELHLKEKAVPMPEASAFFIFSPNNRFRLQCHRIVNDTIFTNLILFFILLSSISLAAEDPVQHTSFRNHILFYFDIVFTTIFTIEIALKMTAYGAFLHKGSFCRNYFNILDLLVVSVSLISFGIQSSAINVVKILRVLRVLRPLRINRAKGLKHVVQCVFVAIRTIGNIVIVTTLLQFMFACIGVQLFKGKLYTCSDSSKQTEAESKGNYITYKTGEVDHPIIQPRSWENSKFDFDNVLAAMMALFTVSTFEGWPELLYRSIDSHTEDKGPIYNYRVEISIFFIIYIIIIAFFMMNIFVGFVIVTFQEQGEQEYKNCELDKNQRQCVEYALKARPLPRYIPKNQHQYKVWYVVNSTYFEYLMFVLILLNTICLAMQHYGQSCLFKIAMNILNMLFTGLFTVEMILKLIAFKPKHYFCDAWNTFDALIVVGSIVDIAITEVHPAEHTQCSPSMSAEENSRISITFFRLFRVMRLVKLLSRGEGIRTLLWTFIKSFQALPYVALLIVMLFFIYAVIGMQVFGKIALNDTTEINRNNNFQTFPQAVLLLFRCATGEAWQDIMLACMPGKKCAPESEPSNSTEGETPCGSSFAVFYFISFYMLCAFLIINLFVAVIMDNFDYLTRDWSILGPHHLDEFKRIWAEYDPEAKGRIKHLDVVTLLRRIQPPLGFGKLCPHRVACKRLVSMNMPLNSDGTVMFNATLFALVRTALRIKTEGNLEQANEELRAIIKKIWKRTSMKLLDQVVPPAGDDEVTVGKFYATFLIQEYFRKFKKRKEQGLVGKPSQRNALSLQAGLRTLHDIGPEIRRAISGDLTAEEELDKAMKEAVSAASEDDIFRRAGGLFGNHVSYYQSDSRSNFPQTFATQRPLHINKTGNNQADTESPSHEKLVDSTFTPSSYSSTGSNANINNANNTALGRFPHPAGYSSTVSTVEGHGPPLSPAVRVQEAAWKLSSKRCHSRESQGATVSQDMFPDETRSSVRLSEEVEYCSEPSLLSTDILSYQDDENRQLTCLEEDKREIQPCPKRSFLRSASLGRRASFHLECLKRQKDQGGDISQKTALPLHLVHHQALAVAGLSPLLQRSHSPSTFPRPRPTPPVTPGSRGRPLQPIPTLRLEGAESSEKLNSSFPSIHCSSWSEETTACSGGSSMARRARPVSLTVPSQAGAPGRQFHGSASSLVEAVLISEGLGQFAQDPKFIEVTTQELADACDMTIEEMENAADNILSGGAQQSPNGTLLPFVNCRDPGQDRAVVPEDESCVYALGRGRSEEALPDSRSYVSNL
Chain of D(3) dopamine receptor (P35462 whole entry): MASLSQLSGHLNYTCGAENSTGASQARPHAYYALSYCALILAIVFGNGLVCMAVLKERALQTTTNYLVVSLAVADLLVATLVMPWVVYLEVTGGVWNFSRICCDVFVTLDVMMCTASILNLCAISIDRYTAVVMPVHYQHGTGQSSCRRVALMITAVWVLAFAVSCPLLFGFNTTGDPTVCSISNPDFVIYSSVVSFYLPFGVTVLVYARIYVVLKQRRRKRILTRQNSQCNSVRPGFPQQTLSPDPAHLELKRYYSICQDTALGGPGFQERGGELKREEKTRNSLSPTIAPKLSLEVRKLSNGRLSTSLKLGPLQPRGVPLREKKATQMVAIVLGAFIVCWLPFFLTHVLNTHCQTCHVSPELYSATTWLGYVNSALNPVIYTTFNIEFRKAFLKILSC
Chain of Motilin receptor (O43193 whole entry): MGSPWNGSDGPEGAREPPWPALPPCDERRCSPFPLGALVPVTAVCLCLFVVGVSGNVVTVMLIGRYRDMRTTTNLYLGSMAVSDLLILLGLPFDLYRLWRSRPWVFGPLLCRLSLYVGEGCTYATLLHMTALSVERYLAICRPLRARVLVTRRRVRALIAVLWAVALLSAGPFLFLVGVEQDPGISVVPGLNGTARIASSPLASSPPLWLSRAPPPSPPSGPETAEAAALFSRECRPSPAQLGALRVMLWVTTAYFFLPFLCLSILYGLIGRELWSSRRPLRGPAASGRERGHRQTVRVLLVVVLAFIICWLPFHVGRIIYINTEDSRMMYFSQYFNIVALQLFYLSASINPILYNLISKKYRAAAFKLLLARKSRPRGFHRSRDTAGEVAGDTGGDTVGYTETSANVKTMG
Chain of Cannabinoid receptor 1 (P21554 whole entry): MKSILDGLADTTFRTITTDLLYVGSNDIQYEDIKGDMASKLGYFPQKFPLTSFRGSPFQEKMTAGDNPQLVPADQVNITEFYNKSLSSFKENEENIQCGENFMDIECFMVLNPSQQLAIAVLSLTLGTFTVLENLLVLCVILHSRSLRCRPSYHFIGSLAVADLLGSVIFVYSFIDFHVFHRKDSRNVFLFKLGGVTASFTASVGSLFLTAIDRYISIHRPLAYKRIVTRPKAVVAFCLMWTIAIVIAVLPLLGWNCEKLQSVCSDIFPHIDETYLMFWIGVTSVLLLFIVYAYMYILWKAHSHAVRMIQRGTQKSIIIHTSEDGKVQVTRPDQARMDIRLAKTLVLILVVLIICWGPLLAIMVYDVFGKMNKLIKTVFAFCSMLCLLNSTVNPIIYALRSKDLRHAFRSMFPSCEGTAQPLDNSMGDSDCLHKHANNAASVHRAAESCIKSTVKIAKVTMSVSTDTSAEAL
Chain of 5-hydroxytryptamine receptor 2A (P28223 whole entry): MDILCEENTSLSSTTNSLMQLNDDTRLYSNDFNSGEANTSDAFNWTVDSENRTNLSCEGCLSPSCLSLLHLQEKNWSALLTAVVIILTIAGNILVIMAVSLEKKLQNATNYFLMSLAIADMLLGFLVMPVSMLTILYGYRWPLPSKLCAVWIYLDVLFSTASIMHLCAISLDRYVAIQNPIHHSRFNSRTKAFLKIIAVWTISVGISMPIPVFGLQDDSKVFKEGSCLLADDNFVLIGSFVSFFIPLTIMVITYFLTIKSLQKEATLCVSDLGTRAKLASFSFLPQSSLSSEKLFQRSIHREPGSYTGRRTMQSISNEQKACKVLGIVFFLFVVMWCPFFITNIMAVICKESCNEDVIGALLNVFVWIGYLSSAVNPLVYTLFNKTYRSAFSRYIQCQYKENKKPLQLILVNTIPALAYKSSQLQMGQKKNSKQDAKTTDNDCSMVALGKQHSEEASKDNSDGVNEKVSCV

Structure (SMILES) | AC50 [1] [µM] | AC50 (Cannabinoid receptor 1) [µM] | AC50 [2] [µM] | AC50 (Melanocortin receptor 3) [µM] | AC50 (Endothelin-1 receptor) [µM] | AC50 [3] [µM] | AC50 (Estrogen receptor) [µM] | AC50 (D(3) dopamine receptor) [µM] | AC50 [4] [µM] | AC50 [5] [µM] | AC50 (Motilin receptor) [µM] | AC50 (Progesterone receptor) [µM] | AC50 [6] [µM]
O=C(C[S+]([O-])C(c1ccccc1)c1ccccc1)NO (stereo unspecified) | > 30 | > 30 | > 30 | > 30 | > 30 | > 30 | > 30 | > 30 | > 30 | > 30 | > 30 | > 30 | > 30
NC(CO)C(=O)NNCc1ccc(O)c(O)c1O (stereo unspecified) [BENSERAZIDE] | > 30 | > 30 | > 30 | > 30 | > 30 | > 30 | 1.72 | > 30 | > 10 | > 10 | > 10 |  | > 10
CCC(C(=O)O)c1ccc(CC(C)C)cc1 (stereo unspecified) [BUTIBUFEN] | > 30 | > 30 | > 30 | > 30 | > 30 | > 30 | > 30 | > 30 | > 30 | > 30 | > 30 | > 30 | > 30
CN(C)C(=O)OC1N=C(c2ccccc2)c2cc(Cl)ccc2N(C)C1=O (stereo unspecified) [CAMAZEPAM] | > 10 | > 30 | > 10 | > 30 | > 30 | > 30 | > 30 | > 10 | > 10 | > 10 | > 10 |  | > 10
CCCCCOC(=O)Nc1nc(=O)n([C@@H]2O[C@H](C)[C@@H](O)[C@H]2O)cc1F [CAPECITABINE] | > 30 | > 30 | > 30 | > 30 | > 30 | > 30 | > 30 | > 30 | > 30 |  | > 30 | > 30 | 
CCOc1cc(N)c([N+](=O)[O-])cc1C(=O)NC1CCN(CC2CC=CCC2)CC1 (stereo unspecified) [CINITAPRIDE] | 22 | > 30 | 24 | > 30 | > 30 | > 30 | > 30 | 0.038 | > 30 | 16 | 8.1 | > 30 | > 30
COC(=O)[C@H]1[C@@H](OC(=O)c2ccccc2)C[C@@H]2CC[C@H]1N2C [COCAINE] | > 30 | > 30 |  | > 30 | > 30 | > 30 | > 30 | > 30 | > 30 | > 30 | > 30 | > 30 | > 30
